# According to US20220112175A1, “PYRIDAZINES HERBICIDAL COMPOUNDS” (SYNGENTA CROP PROTECTION AG, priority 2019, published 2022):
# Read-outs that look alike come from different tables or passages of the source.
# How the values were obtained:
# Assay in all cases: Post-emergence efficacy, glasshouse pot test
# Assay type in all cases: in vivo
# [1] = test system: Amaranthus palmeri (AMAPA); settings: 312 h, read-out: Post-emergence efficacy AMAPA (100=total damage to plant; 0=no damage to plant)
# Experimental: (§1) Seeds of a variety of test species were sown in standard soil in pots. After cultivation for 14 days (post-emergence) under controlled conditions in a glasshouse (at 24/16° C., day/night; 14 hours light; 65% humidity), the plants were sprayed with an aqueous spray solution derived from the dissolution of the technical active ingredient formula (I) in a small amount of acetone and a special solvent and emulsifier mixture referred to as IF50 (11.12% Emulsogen EL360 TM+44.44% N-methylpyrrolidone+44.44% Dowanol DPM glycol ether), to create a 50 g/l solution which was then diluted to required concentration using 0.25% or 1% Empicol ESC70 (Sodium lauryl ether sulphate)+1% ammonium sulphate as diluent.
# (§2) The test plants were then grown in a glasshouse under controlled conditions (at 24/16° C., day/night; 14 hours light; 65% humidity) and watered twice daily. After 13 days the test was evaluated (100=total damage to plant; 0=no damage to plant).
# (§3) Ipomoea hederacea (IPOHE), Euphorbia heterophylla (EPHHL), Chenopodium album (CHEAL), Amaranthus palmeri (AMAPA), Lolium perenne (LOLPE), Digitaria sanguinalis (DIGSA), Eleusine indica (ELEIN), Echinochloa crus-galli (ECHCG), Setaria faberi (SETFA)
# [2] = test system: Echinochloa crus-galli (ECHCG); settings: 312 h, read-out: Post-emergence efficacy ECHCG (100=total damage to plant; 0=no damage to plant)
# Experimental: as §1, §2, §3
# Lolium perenne (LOLPE) = settings: 312 h, read-out: Post-emergence efficacy LOLPE (100=total damage to plant; 0=no damage to plant)
# Experimental: as §1, §2, §3
# Setaria faberi (SETFA) = settings: 312 h, read-out: Post-emergence efficacy SETFA (100=total damage to plant; 0=no damage to plant)
# Experimental: as §1, §2, §3
# [3] = test system: Chenopodium album (CHEAL); settings: 312 h, read-out: Post-emergence efficacy CHEAL (100=total damage to plant; 0=no damage to plant)
# Experimental: as §1, §2, §3
# Eleusine indica (ELEIN) = settings: 312 h, read-out: Post-emergence efficacy ELEIN (100=total damage to plant; 0=no damage to plant)
# Experimental: as §1, §2, §3
# [4] = test system: Ipomoea hederacea (IPOHE); settings: 312 h, read-out: Post-emergence efficacy IPOHE (100=total damage to plant; 0=no damage to plant)
# Experimental: as §1, §2, §3
# [5] = test system: Euphorbia heterophylla (EPHHL); settings: 312 h, read-out: Post-emergence efficacy EPHHL (100=total damage to plant; 0=no damage to plant)
# Experimental: as §1, §2, §3
# [6] = test system: Digitaria sanguinalis (DIGSA); settings: 312 h, read-out: Post-emergence efficacy DIGSA (100=total damage to plant; 0=no damage to plant)
# Experimental: as §1, §2, §3
# [7] = Application rate 500 g/Ha, post-emergence spray, evaluated after 13 days
SMILES,"pest or weed control at 500 g/ha [1, 7] [%]","pest or weed control at 500 g/ha [2, 7] [%]",pest or weed control at 500 g/ha (Lolium perenne (LOLPE); [7]) [%],pest or weed control at 500 g/ha (Setaria faberi (SETFA); [7]) [%],"pest or weed control at 500 g/ha [3, 7] [%]",pest or weed control at 500 g/ha (Eleusine indica (ELEIN); [7]) [%],"pest or weed control at 500 g/ha [4, 7] [%]","pest or weed control at 500 g/ha [5, 7] [%]","pest or weed control at 500 g/ha [6, 7] [%]",pest or weed control at 500 g/ha ([1]; post-emergence) [%],pest or weed control at 500 g/ha ([2]; post-emergence) [%],pest or weed control at 500 g/ha (Lolium perenne (LOLPE); post-emergence) [%],pest or weed control at 500 g/ha (Setaria faberi (SETFA); post-emergence) [%],pest or weed control at 500 g/ha ([3]; post-emergence) [%],pest or weed control at 500 g/ha (Eleusine indica (ELEIN); post-emergence) [%],pest or weed control at 500 g/ha ([4]; post-emergence) [%],pest or weed control at 500 g/ha ([5]; post-emergence) [%],pest or weed control at 500 g/ha ([6]; post-emergence) [%]
CC(C)(NC(=O)C[n+]1ccc(-c2nccs2)cn1)C(=O)O [Compound A9],100,30,30,40,50,70,20,80,40,,,,,,,,,
CC(NC(=O)C[n+]1ccc(-c2nccs2)cn1)C(=O)O (stereo not drawn) [Compound A10],100,60,20,40,90,40,60,90,40,,,,,,,,,
CC(NS(=O)(=O)CC[n+]1ccc(-c2ncsn2)cn1)C(=O)O (stereo not drawn) [Compound A22],100,80,60,100,50,100,50,20,100,,,,,,,,,
CC(C)(NC(=O)C[n+]1ccc(-c2ncsn2)cn1)C(=O)O [Compound A21],100,30,40,100,90,40,70,80,30,,,,,,,,,
"Cn1cnc(-c2cc[n+](CC(=O)NCC(=O)O)nc2)n1 [Compound A2, 2-[[2-[4-(1-methyl-1,2,4-triazol-3-yl)pyridazin-1-ium-1-yl]acetyl]amino]acetic acid chloride]",,,,,,,,,,100,100,40,100,70,80,40,50,100
CC(C)(NC(=O)CC[n+]1ccc(-c2nccs2)cn1)C(=O)O [Compound A15],100,100,30,100,100,90,40,50,100,,,,,,,,,
CN(CC(=O)O)C(=O)C[n+]1ccc(-c2ncn(C)n2)cn1 [Compound A3],100,100,30,100,100,90,40,50,100,,,,,,,,,
O=C(O)CNC(=O)C[n+]1ccc(-c2nccs2)cn1 [Compound A12],100,90,50,50,90,70,70,100,40,,,,,,,,,
CC(C)(NS(=O)(=O)CC[n+]1ccc(-c2nccs2)cn1)C(=O)O [Compound A18],30,10,0,20,50,0,0,10,0,,,,,,,,,
CC(NC(=O)C[n+]1ccc(-c2ncsn2)cn1)C(=O)O (stereo not drawn) [Compound A19],100,80,40,90,90,80,50,90,80,,,,,,,,,
CN(CC(=O)O)C(=O)C[n+]1ccc(-c2nccs2)cn1 [Compound A11],90,50,30,50,20,50,20,90,40,,,,,,,,,
O=C(O)CNC(=O)CC[n+]1ccc(-c2ncco2)cn1 [Compound A13],100,100,60,100,100,90,60,90,100,,,,,,,,,
CC(NC(=O)CC[n+]1ccc(-c2nccs2)cn1)C(=O)O (stereo not drawn) [Compound A16],100,100,60,100,90,100,20,40,100,,,,,,,,,
"O=C(O)CNS(=O)(=O)CC[n+]1ccc(-c2nccs2)cn1 [Compound A17, 2-[2-(4-thiazol-2-ylpyridazin-1-ium-1-yl)ethylsulfonylamino]acetic acid 2,2,2-trifluoroacetate]",0,20,0,20,30,10,10,20,80,,,,,,,,,
"Cn1cnc(-c2cc[n+](CSCC(=O)O)nc2)n1 [Compound A8, 2-[[4-(1-methyl-1,2,4-triazol-3-yl)pyridazin-1-ium-1-yl]methylsulfanyl]acetic acid chloride]",100,100,70,100,90,100,30,70,100,,,,,,,,,
CN(CCS(=O)(=O)[O-])C(=O)C[n+]1ccc(-c2ncn(C)n2)cn1 [Compound A6],90,90,20,80,80,80,30,70,90,,,,,,,,,
